According to US4771130A, “Target-entrapped drugs” (priority 1984, dated 1988):

Legend:
[1] = molecular target: T1, aldose reductase in a crude extract of rat lens (Rattus norvegicus, UniProt P07943); assay: Reversible inhibition of aldose reductase (Ki and type of inhibition); assay type: biochemical
T1 construct: aldose reductase in a crude extract of rat lens; from tissue; host or cells: rat lens (crude extract, usually lyophilized)
Description: (§1) Lens aldose reductase used for test purposes was extracted and assayed by the technique reported by Hayman and Kinoshita (see J.Biol. Chem. 240, 877-882 (1965)). The extract was usually adjusted to pH 7.0 and lyophilized. This product is stable indefinitely in the cold and provides particularly reliable assay results since day to day rates are reproducible.
The Ki and type of inhibition of aldose reductase by Asub-Q (0.274 mM) was determined at pH 6.3 in 0.1M phosphate buffer using a saturating concentration of NADPH (121 uM). The results are plotted in FIG. 6.

[2] = test system: cataract formation in rats; assay: Cataract formation in galactose-fed rats: light irradiated; assay type: in vivo, rat
Description: Approximately 5-10 μl of Asub-Q (0.65 mM) dissolved in DMSO was injected into the aqueous humour of the right eye of each of three 75 g. rats. After 1 hour, when the drug had diffused into the lens, the rat was irradiated for 30 minutes in a Rayonet Photochemical Reactor. The rats were fed ad-libinum with a mix of 1:1 chow:galactose. The control eyes (left eye) developed detectable cataracts after 3 days.

[3] = test system: cataract formation in rat lenses; assay: Cataract formation in rat lenses in organ culture: light irradiated; assay type: cell-based
Description: (§2) Organ culture was performed by a modification of the method of Kinoshita et al (see Biochem. Biophys. Acta 158, 472-475 (1968)) with a modified TC 199 medium using 50-75 gm Sprague-Dawly male rats, care being taken to avoid contamination of the system. Fresh rat lenses were treated with Asub-Q in the manner hereinafter described and incubated in the presence of fructose and in the presence of galactose, in order to determine the effect of the Asub-Q. The Asub-Q treatment involved the following:
(a) rat lenses were incubated in the dark in an incubation medium containing Asub-Q for two hours to permit the drug to diffuse into the lens;
(b) the lenses were then placed into a fresh medium and irradiated for 10 minutes for complete inhibition of aldose reductase;
(c) the lenses were then placed into a fresh medium for […] with four changes in medium in the first 24 hours to permit non-covalently bound drug to diffuse out; and
(d) the lenses were then incubated in a medium containing fructose or galactose.
In a typical experiment four groups of 20 lens, four to a Petri dish, were used. The first group was supplemented with fructose (30 mM); the second, with galactose (30 mM); the third, with fructose (30 mM) and treated with Asub-Q (0.145 mM); and the fourth, with galactose (30 mM) and treated with Asub-Q ([…]). The lens were photographed with color film on a red background and evaluated on a O to V scale with O assigned to a clear lens and V to a lens with a totally opaque cataract. The procedure for treatment and photolysis of the lens was described above.
The number outside the parenthesis is the status of the lenses: O to V. The number inside the parenthesis is the number of the lenses.

aldose reductase [4] = molecular target: T2, aldose reductase (Rattus norvegicus, UniProt P07943); assay: Irreversible inhibition of aldose reductase induced by photoirradiation (350 nm); assay type: biochemical
Description: as §1
Photolysis of Asub-Q and aldose reductase was studied in the presence and absence of saturating substrate concentrations (0.274 mM glyceraldehyde, and 0.111 mM NADPH) in 0.1M phosphate buffer, pH 6.3. Photolysis was performed in 3 ml quartz spectrophotometer cuvettes in a Rayonet photochemical reactor with a 350 nm maxima light source. The enzyme was separated from the non-covalently bound inhibitor by passing the photolyzed solution through a Sephadex G-25 column as described above. The results are plotted in FIG. 7. […] The enzyme photolyzed with inhibitor in the presence or absence of substrate is 80% inhibited after 10 minutes.

[5] = test system: cataract formation in rat lenses; assay: Cataract formation in rat lenses in organ culture: X-ray irradiated; assay type: cell-based; settings: 175 Rads X-rays, galactose, eight days
Description: as §2
This experiment was similar to the photoirradiation experiment except that the lenses were irradiated with 175 Rads of X-rays in place of light. […] Lenses incubated with galactose would be completely opaque (V).

aldose reductase [6] = molecular target: T2, aldose reductase; assay: X-ray induced irreversible inhibition of aldose reductase; assay type: biochemical
Description: as §1
X-ray irradiation was performed with a General Electric Maximum-100 type X-ray machine using the following settings: 100 kVp, 5 ma, 3 mm Al added, HUL=2.6 mm Al, calibrated output=175 R/min. at 15 cm. Two ml of solution with components at the same concentrations used in photolysis experiments were X-rayed in 50 mm diameter open petri dishes placed at 15.9 cm from the X-ray source. The dosages were varied from 5 to 100 Rads, requiring 1, 2, 3, 4, 34 and 51 seconds exposure, respectively.

[7] = pH 6.3, 0.1M phosphate buffer, NADPH 121 uM

**Q.** With “N-(2-nitro-4-azidophenyl) hexylenediamine-N-(2'-O-quercitrin) [Asub-Q]” as the substance, how does the “Ki compared with quercitrin” value ([1]; crude extract of rat lens) read?
**A.** very similar to quercitrin

**Q.** What about the Ki [1, 7] of the same substance?
**A.** 480 nM

**Q.** What about the type of inhibition [1, 7] of the same substance?
**A.** noncompetitive inhibitor

**Q.** And the “reversible inhibitor activity compared with quercitrin” value ([1]; summary statement)?
**A.** about the same as quercitrin

**Q.** What about the “reversible inhibition of aldose reductase” value ([1]; without photolysis) of the same substance?
**A.** reversibly inhibits aldose reductase

**Q.** And the “cataract in treated right eyes” value ([2]; 5-10 μl of 0.65 mM in aqueous humour, light 30 minutes, 1:1 chow:galactose, 7 days)?
**A.** no cataract was observed

**Q.** What about the “cataract formation, repeat experiment” value ([2]; repeated on thirty rats) of the same substance?
**A.** equivalent results

**Q.** And the “cataract progression vs fructose control” value ([3]; day 35)?
**A.** not nearly as advanced

**Q.** And the lens clarity ([3]; lenses containing Asub-Q, after three days)?
**A.** remained clear

**Q.** What about the “resistance to cataract formation vs fructose control lenses” value ([3]; overall, organ culture) of the same substance?
**A.** at least as impervious to cataract formation as control lenses that were incubated with fructose

**Q.** And the “inhibition of enzyme photolyzed with inhibitor” value (aldose reductase [4]; 10 minutes photolysis, 350 nm, in presence or absence of substrate, pH 6.3)?
**A.** 80%

**Q.** What about the “type of inhibition after irradiation (kinetic analysis)” value (aldose reductase [4]; light maximum at 350 nm, chromatographic removal of small molecules) of the same substance?
**A.** both specific irreversible inhibition and non-specifically bound reversible (soluble immobilized inhibitor) inhibition occur

**Q.** What about the irreversible inhibition (aldose reductase [4]; one minute photolysis, 350 nm) of the same substance?
**A.** roughly 40%

**Q.** And the “irreversible inhibition on irradiation” value (aldose reductase [4]; photo- or X-ray irradiation, summary statement)?
**A.** photo- or X-ray sensitive irreversible affinity inhibitor for aldose reductase

**Q.** What about the “number of lenses per cataract status” value [5] of the same substance?
**A.** 5 clear lenses (O) and 6 with a slight cataract (I)

**Q.** What about the “loss of enzyme activity” value (aldose reductase [6]; 20 Rads irradiation or above) of the same substance?
**A.** approximately two thirds

**Q.** And the “irreversible inhibition of aldose reductase” value (aldose reductase [6]; mixture of Asub-Q and rat lens extract irradiated with X-rays)?
**A.** extensively irreversibly inhibited
